Columns and labels:
[1] = target: neuronal nAChR ACh recognition sites; conditions: ref Perry et al., 1988; Hunter et al., 1989; cited from earlier work
[2] = target: human adult nAChRs expressed in HEK 293 cells (Homo sapiens, UniProt P02708+P11230+Q04844+Q07001); assay type: binding; conditions: P = 0.64 by one-way ANOVA
Sequence of human adult nAChRs expressed in HEK 293 cells (P02708 21-457): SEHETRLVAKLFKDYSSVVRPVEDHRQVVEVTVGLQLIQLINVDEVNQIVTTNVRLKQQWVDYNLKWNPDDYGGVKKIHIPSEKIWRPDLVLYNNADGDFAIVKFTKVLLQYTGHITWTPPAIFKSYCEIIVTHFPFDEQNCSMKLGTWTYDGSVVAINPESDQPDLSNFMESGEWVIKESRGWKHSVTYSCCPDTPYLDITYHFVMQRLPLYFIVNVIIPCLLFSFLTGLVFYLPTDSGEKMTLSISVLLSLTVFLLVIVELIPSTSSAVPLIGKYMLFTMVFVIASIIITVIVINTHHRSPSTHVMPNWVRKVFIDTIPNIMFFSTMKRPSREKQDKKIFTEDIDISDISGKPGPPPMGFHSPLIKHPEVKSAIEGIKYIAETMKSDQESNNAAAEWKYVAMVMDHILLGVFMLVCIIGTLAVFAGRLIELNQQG
Sequence of human adult nAChRs expressed in HEK 293 cells (P11230 24-501): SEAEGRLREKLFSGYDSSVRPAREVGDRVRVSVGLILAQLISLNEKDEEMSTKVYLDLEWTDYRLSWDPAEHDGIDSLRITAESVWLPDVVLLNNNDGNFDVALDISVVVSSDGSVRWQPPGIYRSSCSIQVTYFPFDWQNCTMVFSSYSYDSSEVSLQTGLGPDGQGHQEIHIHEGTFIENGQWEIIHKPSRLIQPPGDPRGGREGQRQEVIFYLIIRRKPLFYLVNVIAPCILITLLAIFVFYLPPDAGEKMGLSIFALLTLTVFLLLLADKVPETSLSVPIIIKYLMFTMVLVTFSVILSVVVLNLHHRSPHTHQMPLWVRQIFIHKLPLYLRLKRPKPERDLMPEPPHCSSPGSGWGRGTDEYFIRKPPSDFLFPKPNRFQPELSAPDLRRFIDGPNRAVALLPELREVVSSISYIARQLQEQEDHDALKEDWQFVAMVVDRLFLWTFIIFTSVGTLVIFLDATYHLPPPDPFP
Sequence of human adult nAChRs expressed in HEK 293 cells (Q07001 22-517): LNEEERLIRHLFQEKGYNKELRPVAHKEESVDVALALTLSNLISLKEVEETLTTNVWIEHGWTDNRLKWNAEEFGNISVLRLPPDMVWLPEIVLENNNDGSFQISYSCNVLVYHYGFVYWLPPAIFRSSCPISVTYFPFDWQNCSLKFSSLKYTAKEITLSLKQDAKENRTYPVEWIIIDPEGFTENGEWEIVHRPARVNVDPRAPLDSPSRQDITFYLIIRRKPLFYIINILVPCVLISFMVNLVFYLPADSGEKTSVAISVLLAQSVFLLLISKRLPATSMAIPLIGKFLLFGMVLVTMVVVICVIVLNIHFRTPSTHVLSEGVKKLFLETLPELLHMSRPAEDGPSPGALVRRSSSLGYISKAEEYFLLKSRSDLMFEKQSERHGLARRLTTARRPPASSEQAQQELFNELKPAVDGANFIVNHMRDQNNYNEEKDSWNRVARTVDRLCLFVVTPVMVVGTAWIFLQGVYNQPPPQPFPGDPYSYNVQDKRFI
Sequence of human adult nAChRs expressed in HEK 293 cells (Q04844 21-493): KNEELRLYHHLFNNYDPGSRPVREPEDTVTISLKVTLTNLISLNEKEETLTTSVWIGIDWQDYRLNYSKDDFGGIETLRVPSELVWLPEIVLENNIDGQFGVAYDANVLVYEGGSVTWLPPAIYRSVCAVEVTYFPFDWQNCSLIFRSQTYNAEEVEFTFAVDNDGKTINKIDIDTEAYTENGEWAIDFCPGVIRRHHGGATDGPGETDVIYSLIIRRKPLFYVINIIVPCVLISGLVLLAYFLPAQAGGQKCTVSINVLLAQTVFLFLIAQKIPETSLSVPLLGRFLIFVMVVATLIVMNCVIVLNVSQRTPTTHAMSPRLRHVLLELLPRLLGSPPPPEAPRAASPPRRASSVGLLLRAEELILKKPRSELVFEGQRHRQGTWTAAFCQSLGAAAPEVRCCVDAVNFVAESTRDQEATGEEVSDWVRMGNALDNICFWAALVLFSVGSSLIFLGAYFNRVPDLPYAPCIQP

SMILES | Kd values, competitive binding [1] | difference in log IC 50 values in the presence of varying concentrations of tacrine [2]
Nc1c2c(nc3ccccc13)CCCC2 [tacrine, 9-amino-1,2,3,4-tetrahydroacridine] | low micromolar range | 
C[N+](C)(C)CCOC(N)=O.[Cl-] [carbamylcholine] |  | No difference

From PMC2229521 (The Journal of General Physiology, 2002)
